Consider one compound from patent US12171864B2, “Biological self-assembled nanocrystal injection having a lymphatic targeting function and preparation method” (SHENZHEN CHINA RESOURCES JIUCHUANG MEDICAL AND …, priority 2017, dated 2024).

Each structure is given as a SMILES string. Where a name gives a salt, the structure may show the parent alone.

Data set [1] concerns injection site. Nature of the data set: Effect of the osmotic pressure on the irritation of the injection site (H&E staining). It counts as in vivo, Kunming mice. The source says:
Mitoxantrone hydrochloride was used as a model drug. The osmotic pressure of the injection was adjusted to 112, 196, 285, 307, 1503, 2317, and 3011 mmol/Kg, respectively. The mode of administration of interstitial injection was selected for subcutaneous injection in the paws of Kunming mice. At the pre-set time points, the mice were sacrificed by cervical dislocation, and the administration sites of the mice were taken for H&E staining to evaluate local irritation.

The test system of data set [2] is lymph nodes. Kind of data set: Effect of the osmotic pressure on the drug targeting ability (lymph node staining). It is filed as in vivo, Kunming mice. The source says:
Mitoxantrone hydrochloride was used as a model drug. The osmotic pressure of the injection was adjusted to 112, 196, 285, 307, 1503, 2317, and 3011 mmol/Kg, respectively. The mode of administration of interstitial injection was selected for subcutaneous injection in the paws of Kunming mice. At the pre-set time points, the mice were sacrificed by cervical dislocation, and the first, second and third classes of lymph nodes were removed for observation of staining.

The test system of data set [3] is lymph nodes. Nature of the data set: Effect of pH on the drug targeting ability (lymph node staining). It is filed as in vivo, Kunming mice. The source says: Mitoxantrone hydrochloride was used as a model drug. The pH of the injection was adjusted to 1.5, 2.0, 2.5, 3.5, 4.5, 5.5, and 6.0, respectively. The mode of administration of interstitial injection was selected for subcutaneous injection in the paws of Kunming mice. At the pre-set time points, the mice were sacrificed by cervical dislocation, and the first, second and third classes of lymph nodes of the mice were removed for observation of staining.

A short description of data set [4]: Effect of pH on the drug stability (drug content after 0.22 μm filtration). It is filed as physicochemical. As to conditions: filtered 0.22 μm. As to the method: Mitoxantrone hydrochloride was used as a model drug. The pH of the injection was adjusted to 1.5, 2.0, 2.5, 3.5, 4.5, 5.5, 6.0, 6.5, and 7.0, respectively. At one hour after adjusting the pH value, the content of the drug was determined after filtration through a 0.22 μm membrane. When the pH was between 1.5 and 6.0, the drug content was from 98.45±0.61% to 101.72±0.20%.

On to `O=C1c2c(O)ccc(O)c2C(=O)c2c(NCCNCCO)ccc(NCCNCCO)c21` [Mitoxantrone hydrochloride], for which the “local irritation of the injection site” value in data set [1] (osmotic pressure 3011 mmol/Kg, subcutaneous injection in the paws) was “redness and swelling occurred and the H&E staining showed local irritation”; in data set [1] (other osmotic pressure values (112, 196, 285, 307, 1503, 2317 mmol/Kg)), “did not show obvious local irritation”. Besides, the “color of third class of lymph nodes” value in data set [2] (osmotic pressure 285 or 2317 mmol/Kg) is on record as “light blue”; in data set [3] (pH 2.0, 2.5 or 6.0, subcutaneous injection in the paws), “light blue”. Also, the “staining of lymph nodes” value is reported as “all the three classes of lymph nodes could be stained” in data set [2] (osmotic pressure between 285 and 2317 mmol/Kg); “all the three classes of lymph nodes could be stained into dark blue” in data set [2] (osmotic pressure between 307 and 1503 mmol/Kg); “only one class of lymph nodes could be stained” in data set [2] (osmotic pressure less than 285 mmol/Kg); “the three classes of lymph nodes could be stained” in data set [3] (pH between 2.0 and 6.0, subcutaneous injection in the paws); “all the three classes of lymph nodes could be stained into dark blue” in data set [3] (pH between 3.5 and 5.5, subcutaneous injection in the paws); “only one class of lymph nodes could be stained” in data set [3] (pH less than 2.0, subcutaneous injection in the paws). The drug content in data set [4] (pH 6.5, one hour after adjusting pH) was 83.76±0.53%; in data set [4] (pH 7.0, one hour after adjusting pH), 75.38±0.22%.
